Assay results as given in US9340600B2 (Indiana University Research and Technology Corporation, priority 2012, dated 2016).
*1 amine or outer side, *2 acyl side, *3 side chain or, on linkers, in order; H or OH if unused. Where a SMILES comes first, the peptide text is derived from it. Side-chain parts run from the residue outwards. [ ]: non-standard residue; d: D form. The star is where a group is joined. γGlu = O=C(O)[C@H](CCC(=O)[*:2])N[*:1]; Met(O2) = CS(=O)(=O)CC[C@H](N)C(=O)O; Palmitoyl = CCCCCCCCCCCCCCCC(=O)*; Nle = CCCC[C@H](N)C(=O)O; Nva = CCC[C@H](N)C(=O)O; Aib = CC(C)(N)C(=O)O

Key:
Assay type in all cases: cell-based
[1] = biological target: T1, glucagon receptor (Homo sapiens, UniProt P47871); test: cAMP induction, firefly luciferase-based reporter assay in HEK293 cells co-transfected with glucagon receptor; details: EC50 at Glucagon Receptor
T1 construct: expressed in transfected cells; host or cells: HEK293
Description: (§1) This example describes an exemplary method of testing the biological activity of the peptides of the present disclosures, which method involves assaying cAMP synthesis.

[2] = biological target: T2, GLP-1 receptor (Homo sapiens, UniProt P43220); test: cAMP induction, firefly luciferase-based reporter assay in HEK293 cells co-transfected with GLP-1 receptor; details: EC50 at GLP-1 Receptor
T2 construct: expressed in transfected cells; host or cells: HEK293
Description: as §1

[3] = biological target: T3, GIP receptor (Homo sapiens, UniProt P48546); test: cAMP induction, firefly luciferase-based reporter assay in HEK293 cells co-transfected with GIP receptor; details: EC50 at GIP Receptor
T3 construct: expressed in transfected cells; host or cells: HEK293
T3 sequence (P48546 22-466): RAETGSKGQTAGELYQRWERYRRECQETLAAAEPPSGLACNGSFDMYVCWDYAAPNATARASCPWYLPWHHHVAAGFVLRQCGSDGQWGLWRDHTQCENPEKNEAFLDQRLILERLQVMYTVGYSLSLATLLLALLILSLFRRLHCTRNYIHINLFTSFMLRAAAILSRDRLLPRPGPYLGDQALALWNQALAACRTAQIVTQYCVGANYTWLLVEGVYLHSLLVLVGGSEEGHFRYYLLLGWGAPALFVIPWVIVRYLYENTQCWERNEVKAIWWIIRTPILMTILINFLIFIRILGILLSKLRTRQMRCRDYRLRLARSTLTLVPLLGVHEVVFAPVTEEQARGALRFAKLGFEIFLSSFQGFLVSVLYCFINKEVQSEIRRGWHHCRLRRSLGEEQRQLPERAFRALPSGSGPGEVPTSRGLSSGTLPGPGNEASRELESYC
Description: as §1

[4] = Table 2, analogs of SEQ ID NO: 18 varying at positions 16-21
[5] = Table 3, analogs of SEQ ID NO: 18 varying at position 3
[6] = Table 4, analogs of SEQ ID NO: 43 varying at position 3
[7] = Table 5, analogs of SEQ ID NO: 10

T2 sequence (P43220 24-463): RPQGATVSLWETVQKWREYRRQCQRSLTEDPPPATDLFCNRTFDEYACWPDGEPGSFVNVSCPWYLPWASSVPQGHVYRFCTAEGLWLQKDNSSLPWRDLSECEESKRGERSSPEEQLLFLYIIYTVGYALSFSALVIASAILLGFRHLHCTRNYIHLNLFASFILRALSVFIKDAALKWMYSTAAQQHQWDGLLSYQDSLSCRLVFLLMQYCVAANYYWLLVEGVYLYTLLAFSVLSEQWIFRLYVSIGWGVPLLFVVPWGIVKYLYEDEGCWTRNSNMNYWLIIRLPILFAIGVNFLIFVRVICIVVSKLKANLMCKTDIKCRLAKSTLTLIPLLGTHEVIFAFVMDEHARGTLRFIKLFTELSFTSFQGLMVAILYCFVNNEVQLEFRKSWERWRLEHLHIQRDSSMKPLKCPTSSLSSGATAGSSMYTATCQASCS
T1 sequence (P47871 26-477): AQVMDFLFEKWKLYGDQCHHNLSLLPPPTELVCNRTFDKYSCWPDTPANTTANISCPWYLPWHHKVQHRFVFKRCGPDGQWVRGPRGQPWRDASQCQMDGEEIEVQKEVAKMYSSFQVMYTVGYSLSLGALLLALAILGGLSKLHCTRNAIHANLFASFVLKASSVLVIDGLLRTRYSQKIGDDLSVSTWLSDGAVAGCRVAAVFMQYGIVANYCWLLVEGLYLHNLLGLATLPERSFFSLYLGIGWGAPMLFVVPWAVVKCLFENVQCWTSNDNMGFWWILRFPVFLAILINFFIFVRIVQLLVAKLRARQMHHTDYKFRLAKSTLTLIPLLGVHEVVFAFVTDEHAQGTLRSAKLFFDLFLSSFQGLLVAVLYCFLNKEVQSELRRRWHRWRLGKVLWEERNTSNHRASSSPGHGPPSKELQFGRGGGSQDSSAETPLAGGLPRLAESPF

Structure (SMILES) | EC50 [1, 5] | EC50 [2, 5] | EC50 [3, 5] | EC50 [1, 6] | EC50 [2, 6] | EC50 [3, 6] | also measured
CCCCCCCCCCCCCCCC(=O)N[C@@H](CCC(=O)NCCCC[C@H](NC(=O)[C@H](CC(=O)O)NC(=O)[C@H](CO)NC(=O)[C@@H](NC(=O)[C@H](Cc1ccccc1)NC(=O)[C@@H](NC(=O)CNC(=O)[C@H](CCC(N)=O)NC(=O)C(C)(C)NC(=O)[C@@H](N)Cc1c[nH]cn1)[C@@H](C)O)[C@@H](C)O)C(=O)N[C@@H](CO)C(=O)N[C@@H](CCCCN)C(=O)N[C@@H](Cc1ccc(O)cc1)C(=O)N[C@@H](CC(C)C)C(=O)N[C@@H](CC(=O)O)C(=O)N[C@@H](C)C(=O)N[C@@H](CCCNC(=N)N)C(=O)N[C@@H](C)C(=O)N[C@@H](C)C(=O)NC(C)(C)C(=O)N[C@@H](CCC(=O)O)C(=O)N[C@@H](Cc1ccccc1)C(=O)N[C@H](C(=O)N[C@@H](CCC(N)=O)C(=O)N[C@@H](Cc1c[nH]c2ccccc12)C(=O)N[C@@H](CC(C)C)C(=O)N[C@@H](CC(C)C)C(=O)N[C@@H](CC(=O)O)C(=O)NCC(=O)NCC(=O)N1CCC[C@H]1C(=O)N[C@@H](CO)C(=O)N[C@@H](CO)C(=O)NCC(=O)N[C@@H](C)C(=O)N1CCC[C@H]1C(=O)N1CCC[C@H]1C(=O)N1CCC[C@H]1C(=O)N[C@@H](CO)C(N)=O)C(C)C)C(=O)O [compound 22] (H-H[Aib]QGTFTSDK([γGlu-Palmitoyl])SKYLDARAA[Aib]EFVQWLLDGGPSSGAPPPS-NH2) |  |  |  |  |  |  | EC50 [1, 4]: 5 pM; EC50 [2, 4]: 11 pM; EC50 [3, 4]: 4 pM
CCCCCCCCCCCCCCCC(=O)N[C@@H](CCC(=O)NCCCC[C@H](NC(=O)[C@H](CC(=O)O)NC(=O)[C@H](CO)NC(=O)[C@@H](NC(=O)[C@H](Cc1ccccc1)NC(=O)[C@@H](NC(=O)CNC(=O)[C@H](CCCC)NC(=O)C(C)(C)NC(=O)[C@@H](N)Cc1c[nH]cn1)[C@@H](C)O)[C@@H](C)O)C(=O)N[C@@H](CO)C(=O)N[C@@H](CCCCN)C(=O)N[C@@H](Cc1ccc(O)cc1)C(=O)N[C@@H](CC(C)C)C(=O)N[C@@H](CCC(=O)O)C(=O)N[C@@H](CCC(=O)O)C(=O)N[C@@H](CCCNC(=N)N)C(=O)N[C@@H](C)C(=O)N[C@@H](C)C(=O)N[C@@H](CCC(N)=O)C(=O)N[C@@H](CCC(=O)O)C(=O)N[C@@H](Cc1ccccc1)C(=O)N[C@H](C(=O)N[C@@H](CCC(N)=O)C(=O)N[C@@H](Cc1c[nH]c2ccccc12)C(=O)N[C@@H](CC(C)C)C(=O)N[C@@H](CC(C)C)C(=O)N[C@@H](CCC(=O)O)C(=O)NCC(=O)NCC(=O)N1CCC[C@H]1C(=O)N[C@@H](CO)C(=O)N[C@@H](CO)C(=O)NCC(=O)N[C@@H](C)C(=O)N1CCC[C@H]1C(=O)N1CCC[C@H]1C(=O)N1CCC[C@H]1C(=O)N[C@@H](CO)C(N)=O)C(C)C)C(=O)O [compound 40] (H-H[Aib][Nle]GTFTSDK([γGlu-Palmitoyl])SKYLEERAAQEFVQWLLEGGPSSGAPPPS-NH2; N-terminus assumed) | 68 pM | 2 pM | 4 pM |  |  |  | 
CCCCCCCCCCCCCCCC(=O)N[C@@H](CCC(=O)NCCCC[C@H](NC(=O)[C@H](CC(=O)O)NC(=O)[C@H](CO)NC(=O)[C@@H](NC(=O)[C@H](Cc1ccccc1)NC(=O)[C@@H](NC(=O)CNC(=O)[C@@H](NC(=O)C(C)(C)NC(=O)[C@@H](N)Cc1c[nH]cn1)C(C)C)[C@@H](C)O)[C@@H](C)O)C(=O)N[C@@H](CO)C(=O)N[C@@H](CCCCN)C(=O)N[C@@H](Cc1ccc(O)cc1)C(=O)N[C@@H](CC(C)C)C(=O)N[C@@H](CC(=O)O)C(=O)N[C@@H](CCC(=O)O)C(=O)N[C@@H](CCCNC(=N)N)C(=O)N[C@@H](C)C(=O)N[C@@H](C)C(=O)N[C@@H](CCC(N)=O)C(=O)N[C@@H](CC(=O)O)C(=O)N[C@@H](Cc1ccccc1)C(=O)N[C@H](C(=O)N[C@@H](CCC(N)=O)C(=O)N[C@@H](Cc1c[nH]c2ccccc12)C(=O)N[C@@H](CC(C)C)C(=O)N[C@@H](CC(C)C)C(=O)N[C@@H](CCC(=O)O)C(=O)NCC(=O)NCC(=O)N1CCC[C@H]1C(=O)N[C@@H](CO)C(=O)N[C@@H](CO)C(=O)NCC(=O)N[C@@H](C)C(=O)N1CCC[C@H]1C(=O)N1CCC[C@H]1C(=O)N1CCC[C@H]1C(=O)N[C@@H](CO)C(N)=O)C(C)C)C(=O)O [compound 45] (H-H[Aib]VGTFTSDK([γGlu-Palmitoyl])SKYLDERAAQDFVQWLLEGGPSSGAPPPS-NH2) |  |  |  | 26 pM | 6 pM | 5 pM | 
CCCCCCCCCCCCCCCC(=O)N[C@@H](CCC(=O)NCCCC[C@H](NC(=O)[C@H](CC(=O)O)NC(=O)[C@H](CO)NC(=O)[C@@H](NC(=O)[C@H](Cc1ccccc1)NC(=O)[C@@H](NC(=O)CNC(=O)[C@H](CCC)NC(=O)C(C)(C)NC(=O)[C@@H](N)Cc1c[nH]cn1)[C@@H](C)O)[C@@H](C)O)C(=O)N[C@@H](CO)C(=O)N[C@@H](CCCCN)C(=O)N[C@@H](Cc1ccc(O)cc1)C(=O)N[C@@H](CC(C)C)C(=O)N[C@@H](CCC(=O)O)C(=O)N[C@@H](CCC(=O)O)C(=O)N[C@@H](CCCNC(=N)N)C(=O)N[C@@H](C)C(=O)N[C@@H](C)C(=O)N[C@@H](CCC(N)=O)C(=O)N[C@@H](CCC(=O)O)C(=O)N[C@@H](Cc1ccccc1)C(=O)N[C@H](C(=O)N[C@@H](CCC(N)=O)C(=O)N[C@@H](Cc1c[nH]c2ccccc12)C(=O)N[C@@H](CC(C)C)C(=O)N[C@@H](CC(C)C)C(=O)N[C@@H](CCC(=O)O)C(=O)NCC(=O)NCC(=O)N1CCC[C@H]1C(=O)N[C@@H](CO)C(=O)N[C@@H](CO)C(=O)NCC(=O)N[C@@H](C)C(=O)N1CCC[C@H]1C(=O)N1CCC[C@H]1C(=O)N1CCC[C@H]1C(=O)N[C@@H](CO)C(N)=O)C(C)C)C(=O)O [compound 38] (H-H[Aib][Nva]GTFTSDK([γGlu-Palmitoyl])SKYLEERAAQEFVQWLLEGGPSSGAPPPS-NH2; N-terminus assumed) | 55 pM | 2 pM | 4 pM |  |  |  | 
CCCCCCCCCCCCCCCC(=O)N[C@@H](CCC(=O)NCCCC[C@H](NC(=O)[C@H](CC(=O)O)NC(=O)[C@H](CO)NC(=O)[C@@H](NC(=O)[C@H](Cc1ccccc1)NC(=O)[C@@H](NC(=O)CNC(=O)[C@H](CCS(C)(=O)=O)NC(=O)C(C)(C)NC(=O)[C@@H](N)Cc1c[nH]cn1)[C@@H](C)O)[C@@H](C)O)C(=O)N[C@@H](CO)C(=O)N[C@@H](CCCCN)C(=O)N[C@@H](Cc1ccc(O)cc1)C(=O)N[C@@H](CC(C)C)C(=O)N[C@@H](CCC(=O)O)C(=O)N[C@@H](CCC(=O)O)C(=O)N[C@@H](CCCNC(=N)N)C(=O)N[C@@H](C)C(=O)N[C@@H](C)C(=O)N[C@@H](CCC(N)=O)C(=O)N[C@@H](CCC(=O)O)C(=O)N[C@@H](Cc1ccccc1)C(=O)N[C@H](C(=O)N[C@@H](CCC(N)=O)C(=O)N[C@@H](Cc1c[nH]c2ccccc12)C(=O)N[C@@H](CC(C)C)C(=O)N[C@@H](CC(C)C)C(=O)N[C@@H](CCC(=O)O)C(=O)NCC(=O)NCC(=O)N1CCC[C@H]1C(=O)N[C@@H](CO)C(=O)N[C@@H](CO)C(=O)NCC(=O)N[C@@H](C)C(=O)N1CCC[C@H]1C(=O)N1CCC[C@H]1C(=O)N1CCC[C@H]1C(=O)N[C@@H](CO)C(N)=O)C(C)C)C(=O)O [compound 41] (H-H[Aib][Met(O2)]GTFTSDK([γGlu-Palmitoyl])SKYLEERAAQEFVQWLLEGGPSSGAPPPS-NH2; N-terminus assumed) | 592 pM | 2 pM | 67 pM |  |  |  | 
CCCCCCCCCCCCCCCC(=O)N[C@@H](CCC(=O)NCCCC[C@H](NC(=O)[C@H](CC(=O)O)NC(=O)[C@H](CO)NC(=O)[C@@H](NC(=O)[C@H](Cc1ccccc1)NC(=O)[C@@H](NC(=O)CNC(=O)[C@H](CCC(N)=O)NC(=O)C(C)(C)NC(=O)[C@@H](N)Cc1c[nH]cn1)[C@@H](C)O)[C@@H](C)O)C(=O)N[C@@H](CO)C(=O)N[C@@H](CCCCN)C(=O)N[C@@H](Cc1ccc(O)cc1)C(=O)N[C@@H](CC(C)C)C(=O)N[C@@H](CC(=O)O)C(=O)N[C@@H](CCC(=O)O)C(=O)N[C@@H](CCCNC(=N)N)C(=O)N[C@@H](C)C(=O)N[C@@H](C)C(=O)N[C@@H](CCC(N)=O)C(=O)N[C@@H](CC(=O)O)C(=O)N[C@@H](Cc1ccccc1)C(=O)N[C@H](C(=O)N[C@@H](CCC(N)=O)C(=O)N[C@@H](Cc1c[nH]c2ccccc12)C(=O)N[C@@H](CC(C)C)C(=O)N[C@@H](CC(C)C)C(=O)N[C@@H](CCC(=O)O)C(=O)NCC(=O)NCC(=O)N1CCC[C@H]1C(=O)N[C@@H](CO)C(=O)N[C@@H](CO)C(=O)NCC(=O)N[C@@H](C)C(=O)N1CCC[C@H]1C(=O)N1CCC[C@H]1C(=O)N1CCC[C@H]1C(=O)N[C@@H](CO)C(N)=O)C(C)C)C(=O)O [compound 43] (H-H[Aib]QGTFTSDK([γGlu-Palmitoyl])SKYLDERAAQDFVQWLLEGGPSSGAPPPS-NH2) |  |  |  | 5 pM | 10 pM | 4 pM | EC50 ([1]; Table 1): 6 pM; EC50 [1, 7]: 5 pM; EC50 ([2]; Table 1): 4 pM; EC50 [2, 7]: 7 pM; EC50 ([3]; Table 1): 5 pM; EC50 [3, 7]: 18 pM
